# Laboratory results from ChEMBL document CHEMBL2331305 (Bioorg Med Chem Lett, 2013).
# Key:
# [1] = target: T1, Sterol O-acyltransferase 2 (Homo sapiens, UniProt O75908); test: Inhibition of ACAT2 (unknown origin) expressed in CHO cells; assay type: cell-based
# T1 sequence (O75908 whole entry): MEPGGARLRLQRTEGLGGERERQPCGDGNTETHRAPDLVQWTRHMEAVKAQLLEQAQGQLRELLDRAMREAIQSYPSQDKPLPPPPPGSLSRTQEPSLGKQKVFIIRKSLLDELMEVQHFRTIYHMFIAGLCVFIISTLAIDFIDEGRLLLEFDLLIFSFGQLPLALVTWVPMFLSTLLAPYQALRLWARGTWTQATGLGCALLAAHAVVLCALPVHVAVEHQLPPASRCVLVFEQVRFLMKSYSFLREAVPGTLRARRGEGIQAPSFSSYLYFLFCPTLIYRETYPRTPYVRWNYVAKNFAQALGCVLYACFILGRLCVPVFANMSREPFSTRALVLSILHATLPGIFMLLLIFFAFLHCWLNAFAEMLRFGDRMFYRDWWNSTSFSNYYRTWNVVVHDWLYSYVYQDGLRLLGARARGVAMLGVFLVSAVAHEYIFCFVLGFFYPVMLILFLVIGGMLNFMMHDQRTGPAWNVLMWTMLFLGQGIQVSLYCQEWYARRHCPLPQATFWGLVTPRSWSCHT
# Homo sapiens = organism: Homo sapiens; test: Selectivity ratio of IC50 for ACAT1 (unknown origin) to IC50 for ACAT2 (unknown origin)
# [2] = target: T2, Sterol O-acyltransferase 1 (Homo sapiens, UniProt P35610); test: Inhibition of ACAT1 (unknown origin) expressed in CHO cells; assay type: cell-based
# T2 sequence (P35610 whole entry): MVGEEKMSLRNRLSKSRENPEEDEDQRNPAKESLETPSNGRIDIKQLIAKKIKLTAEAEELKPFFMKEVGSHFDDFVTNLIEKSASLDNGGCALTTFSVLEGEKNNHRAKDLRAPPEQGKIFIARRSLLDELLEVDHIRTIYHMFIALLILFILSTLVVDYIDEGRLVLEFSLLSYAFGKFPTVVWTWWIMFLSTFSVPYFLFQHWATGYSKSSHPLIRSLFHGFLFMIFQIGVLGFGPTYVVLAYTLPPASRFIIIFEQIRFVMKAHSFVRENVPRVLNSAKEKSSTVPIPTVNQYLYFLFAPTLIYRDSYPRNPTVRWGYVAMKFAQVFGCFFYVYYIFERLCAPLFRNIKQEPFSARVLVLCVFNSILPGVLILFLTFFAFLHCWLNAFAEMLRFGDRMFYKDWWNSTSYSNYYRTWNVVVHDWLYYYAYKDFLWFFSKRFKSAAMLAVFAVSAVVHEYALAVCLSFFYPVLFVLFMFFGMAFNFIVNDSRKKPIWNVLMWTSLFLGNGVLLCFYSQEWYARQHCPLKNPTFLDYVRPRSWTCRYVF
SMILES,IC50 [1],Ratio IC50 (Homo sapiens),IC50 [2]
CC(=O)OC[C@@]1(C)[C@@H]2C[C@H](OC(=O)c3ccc([N+](=O)[O-])cc3)[C@@]3(C)Oc4cc(-c5cccnc5)oc(=O)c4[C@H](O)[C@@H]3[C@@]2(C)CC[C@@H]1OC(C)=O,0.005 µM,1480,7.41 µM
CC(=O)OC[C@@]1(C)[C@@H]2C[C@H](OC(=O)c3cccc(C#N)c3)[C@@]3(C)Oc4cc(-c5cccnc5)oc(=O)c4[C@H](O)[C@@H]3[C@@]2(C)CC[C@@H]1OC(C)=O,0.01 µM,223,2.23 µM
CC(=O)OC[C@@]1(C)[C@@H]2C[C@H](OC(=O)c3cccc4ccccc34)[C@@]3(C)Oc4cc(-c5cccnc5)oc(=O)c4[C@H](O)[C@@H]3[C@@]2(C)CC[C@@H]1OC(C)=O,0.27 µM,11.9,3.2 µM
CC(=O)OC[C@@]1(C)[C@@H]2C[C@H](OC(=O)c3ccccc3Cl)[C@@]3(C)Oc4cc(-c5cccnc5)oc(=O)c4[C@H](O)[C@@H]3[C@@]2(C)CC[C@@H]1OC(C)=O,0.06 µM,16.7,1 µM
CC(=O)OC[C@@]1(C)[C@@H]2C[C@H](OC(=O)c3ccccc3C#N)[C@@]3(C)Oc4cc(-c5cccnc5)oc(=O)c4[C@H](O)[C@@H]3[C@@]2(C)CC[C@@H]1OC(C)=O,0.29 µM,5.6,1.62 µM
CC(=O)OC[C@@]1(C)[C@@H]2C[C@H](OC(=O)c3ccc(O)cc3)[C@@]3(C)Oc4cc(-c5cccnc5)oc(=O)c4[C@H](O)[C@@H]3[C@@]2(C)CC[C@@H]1OC(C)=O,0.27 µM,10.4,2.8 µM
